Experimental data reported in patent US20190216751A1, “Compositions and Methods for the Treatment and Prevention of Cancer” (California State University Northridge, priority 2017, published 2019).

Tests used:
[1] = system: 4T1, 67NR, MCF10AT1k, MCF10CA1h and MCF10CA1a; assay: Cell viability at 100 μM GC7, phase-contrast imaging across cell lines; assay type: cell-based, mouse, human; conditions: 100 μM GC7, 48 hours
Protocol: There are currently two drugs available that can target the activation of eIF5A. Its role of hypusination/activation is spermidine dependent and is carried out in two subsequent steps by the enzymes deoxyhypusine synthase (DHPS) catalyzing the first step and deoxyhypusine hydroxylase (DOHH) catalyzing the second step. The efficacy and potency of the two drugs in the selected cell lines; GC7 (N1-Guanyl-1,7-diaminoheptane)—a selective inhibitor of DHPS, and CPX (Ciclopirox olomine)—which chelates iron that is important for the activity of DOHH (FIG. 2A) are shown. The concentration that determines a 50% decrease in cell viability is noted by the IC50 values on each graph for each drug. These cells were imaged when treated with the second highest concentration of GC7 at 100 μM to show a decrease in cell viability after 48 hours of treatment (FIG. 2B). […] From this point forward, all experiments performed used only GC7 as the selected drug to target hypusinated eIF5A.
The inventors sought to determine if the decrease in cell viability is due to the inhibition of post translational modification of eIF5A. To test this, all cell lines were treated with GC7 at 100 μM for 48 hours—which were the time point and concentration at which a decrease in cell viability was seen (FIG. 2B). […]

[2] = system: PEAK1 protein; assay: Western blot PEAK1; assay type: cell-based, mouse, human; conditions: GC7 0.1 μM to 100 μM, 48 hours; 4T1, 67NR and MCF10CA1a cells
Protocol: The inventors sought to determine if the decrease in cell viability is due to the inhibition of post translational modification of eIF5A. To test this, all cell lines were treated with GC7 at 100 μM for 48 hours—which were the time point and concentration at which a decrease in cell viability was seen (FIG. 2B). The inventors then collected, performed a western blot and immunoblotted for hypusine, total eIF5A and β-actin as a loading control (FIG. 3A). […] To test if this effect is dose-dependent, 4T1, 67NR and MCF10CA1a cells were treated with various concentrations of GC7 ranging from 0.1 μM to 100 μM. Protein lysates were then collected after 48 hours of treatment and performed a western blot. […] To validate this in breast cancer cells, the inventors immunoblotted for PEAK1 as well as E-cadherin, hypusine, total eIF5A and β-actin as a loading control (FIG. 3B). […] The inventors next looked at cell viability at lower concentrations of GC7, such as 1 μM and 10 μM, where a decrease in hypusinated eIF5A is still achieved but the decrease in cell viability is not as great in lower concentrations that do still target hypusinated eIF5A (FIG. 3C).
Cell lines were plated in a 6 well plate at 1e5 cells/mL and left to attach overnight. […] Protein concentrations were determined using Bradford Assay. […] Band intensity graphs were quantified using Fiji software after image thresholding.

[3] = system: eIF5A; conditions: during GC7 treatment; cited from earlier work

N=C(N)NCCCCCCCN.O=S(=O)(O)O [GC7, N1-Guanyl-1,7-diaminoheptane]
decrease in cell viability [1]: largest decrease in cell viability | PEAK1 protein expression [2]: striking down regulation of PEAK1 protein in a dose-dependent manner | FOXP3+ regulatory T cells at the site of the tumor [3]: significantly increased | pancreatic and splenic CD8+ lymphocytes [3]: did not seem to be affected | recruitment of CD4+ T cells at the site of the tumor [3]: significantly decrease
